This is an account of results in ChEMBL document CHEMBL1139295, “Two new cytotoxic diterpenes from the rhizomes of Hedychium spicatum” (Bioorg Med Chem Lett, 2009).

Molecules are shown by their SMILES. ≈ marks a conversion by molar mass, not a printed value. Calls of active or inactive are those of the source. The rule behind the calls is not given here.

The subject of one assay is MCF7. Nature of the assay: Cytotoxicity against human MCF7 cells. The class given is functional, cell-based.
For another assay, the system named is A-431. In words: Cytotoxicity against human A431 cells. It is filed as functional, cell-based.
In a further assay the test system is A549. Nature of the assay: Cytotoxicity against human A549 cells. It is filed as functional, cell-based.
The subject of another assay is CHO. Nature of the assay: Cytotoxicity against CHO cells. It is filed as cell-based. As to conditions: Cricetulus griseus.
In another assay the test system is COLO 205. In words: Cytotoxicity against human COLO205 cells. The class given is functional, cell-based.

As for `O=c1c(O)c(-c2ccccc2)oc2cc(O)cc(O)c12` [GALANGIN], the IC50 came out at 53.1 µg/mL (≈ 196 µM) with MCF7; 39.4 µg/mL (≈ 146 µM) with A-431; 54.2 µg/mL (≈ 201 µM) in the assay on A549; 27 µg/mL (≈ 99.8 µM) in the assay with CHO; 33.1 µg/mL (≈ 123 µM) with COLO 205.
For the compound `C=C1[C@@H](O)C[C@H]2C(C)(C)CCC[C@]2(C)[C@H]1C/C=C1/CCOC1=O`, the half-maximal inhibitory concentration (IC50) in the assay on MCF7 amounted to 33.5 µg/mL (≈ 105 µM); in the assay with A-431 it was 31.5 µg/mL (≈ 99 µM); in the assay with CHO, 21.3 µg/mL (≈ 67 µM); in the assay with COLO 205, 29.8 µg/mL (≈ 93.6 µM). In the assay on A549, the outcome was inactive.
`C=C1C[C@@H](O)[C@H]2C(C)(C)CCC[C@]2(C)[C@H]1/C=C/c1ccoc1` [YUNNACORONARIN A]: the IC50 came to 28 µg/mL (≈ 93.4 µM) in the assay with MCF7; 29 µg/mL (≈ 96.6 µM) with A-431; 46.6 µg/mL (≈ 155 µM) in the assay with A549; 17.9 µg/mL (≈ 59.5 µM) in the assay on CHO; 27.1 µg/mL (≈ 90.3 µM) with COLO 205.
On to `C=C1CC(=O)[C@H]2C(C)(C)CCC[C@]2(C)[C@H]1C/C=C1\CC(O)OC1=O` (stereo not given in full), for which the IC50 with MCF7 amounted to 49.3 µg/mL (≈ 148 µM); in the assay on A-431, 30.5 µg/mL (≈ 91.8 µM); in the assay with CHO, 20.4 µg/mL (≈ 61.2 µM); in the assay with COLO 205, 27.6 µg/mL (≈ 82.9 µM). In addition, the outcome in the assay with A549 was inactive.
On to `CC1=C(O)C(=O)[C@H]2C(C)(C)CCC[C@]2(C)[C@H]1/C=C/C1=CC(=O)OC1`, for which the IC50 in the assay on MCF7 worked out at 21.1 µg/mL (≈ 63.7 µM); in the assay with A-431, 16 µg/mL (≈ 48.5 µM); with A549, 38 µg/mL (≈ 115 µM); in the assay on CHO it was 7.69 µg/mL (≈ 23.3 µM); with COLO 205, 12 µg/mL (≈ 36.4 µM).
The matching figures for `COc1cc(O)c2c(=O)cc(-c3ccccc3)oc2c1` [TECHTOCHRYSIN]: 51 µg/mL (≈ 190 µM), 39 µg/mL (≈ 145 µM), 49.6 µg/mL (≈ 185 µM), 23.5 µg/mL (≈ 87.7 µM) and 37.1 µg/mL (≈ 138 µM).
On to `CC1=CC(=O)[C@H]2C(C)(C)CCC[C@]2(C)[C@@]1(O)/C=C/c1ccoc1`, for which the IC50 in the assay with MCF7 turned out to be 30.9 µg/mL (≈ 98.4 µM); in the assay with A-431 it was 26.1 µg/mL (≈ 83 µM); in the assay on A549, 41.2 µg/mL (≈ 131 µM); in the assay on CHO it was 15.7 µg/mL (≈ 49.9 µM); in the assay with COLO 205 it was 24 µg/mL (≈ 76.4 µM).
